{
  "source": "patent US10675355B2",
  "about": "“VAR2CSA-drug conjugates” (priority 2013, dated 2020)",
  "test_system": "Karpas 299 human T cell lymphoma tumor",
  "assay": "Karpas 299 xenograft efficacy study",
  "type": "in vivo, mice",
  "details": "IV q2dx3: VAR2-Compound O 12, VAR2 12, Compound 886 0.312 mg/kg",
  "protocol": "Female C.B-17/IcrHsd-Prkdcscid mice (Harlan Laboratories) were implanted subcutaneously in the back with the Karpas 299 human T cell lymphoma tumor cell line. Karpas 299 was established from the peripheral blood of a person with T cell non-Hodgkin's lymphoma in 1986; now classed as CD30+ anaplastic large cell lymphoma (ALCL). The lab stocks were mycoplasma negative. […] The mean tumor volume on treatment day (day 21) was greater than 150 mm^3. Test articles were administered intravenously on Day 1, 3, and 6 (total of three injections) at the doses indicated in the study grouping table. Body weights and tumor volumes were measured every Monday, Wednesday, and Friday. Animals remained on study until their tumors reached 800 mm^3 in size or they otherwise required euthanasia due to achieving a humane endpoint.",
  "data": [
    {"smiles": "CN[C@H](C(=O)N[C@H](C(=O)N(C)[C@H](/C=C(\\C)C(=O)NS(=O)(=O)c1ccc(N)cc1)C(C)C)C(C)(C)C)C(C)(C)c1ccccc1", "note": "[Compound 886, (S,E)-N-(4-Aminophenylsulfonyl)-2,5-dimethyl-4-((S)—N,3,3-trimethyl-2-((S)-3-methyl-2-(methylamino)-3-phenylbutanamido)butanamido)hex-2-enamide]", "values": [
      {"measurement": "tumor volume, two-way ANOVA Bonferroni posttests", "setting": "VAR2 versus, Study Day 21", "value": "ns (P > 0.05 = ns (not significant))"},
      {"measurement": "tumor volume, two-way ANOVA Bonferroni posttests", "setting": "VAR2 versus, Study Day 23", "value": "ns (P > 0.05 = ns (not significant))"},
      {"measurement": "tumor volume, two-way ANOVA Bonferroni posttests", "setting": "VAR2 versus, Study Day 26", "value": "ns (P > 0.05 = ns (not significant))"},
      {"measurement": "tumor volume, two-way ANOVA Bonferroni posttests", "setting": "VAR2 versus, Study Day 28", "value": "* (P < 0.05 = *)"},
      {"measurement": "tumor volume, two-way ANOVA Bonferroni posttests", "setting": "VAR2 versus, Study Day 30", "value": "** (P < 0.01 = **)"},
      {"measurement": "tumor volume, two-way ANOVA Bonferroni posttests", "setting": "Vehicle versus, Study Day 21", "value": "ns (P > 0.05 = ns (not significant))"},
      {"measurement": "tumor volume, two-way ANOVA Bonferroni posttests", "setting": "Vehicle versus, Study Day 23", "value": "ns (P > 0.05 = ns (not significant))"},
      {"measurement": "tumor volume, two-way ANOVA Bonferroni posttests", "setting": "Vehicle versus, Study Day 26", "value": "* (P < 0.05 = *)"},
      {"measurement": "tumor volume, two-way ANOVA Bonferroni posttests", "setting": "Vehicle versus, Study Day 28", "value": "*** (P < 0.001 = ***)"},
      {"measurement": "tumor volume, two-way ANOVA Bonferroni posttests", "setting": "Vehicle versus, Study Day 30", "value": "*** (P < 0.001 = ***)"}
    ]}
  ]
}
